Results published in US10100097B2, “GIP-GLP-1 dual agonist compounds and methods” (Zealand Pharma A/S, priority 2012, dated 2018).
Numbered stars: 1 amine (or outer) side, 2 acyl side, 3 side chain; on linkers, the order of the positions; unused ones are H or OH. Square brackets hold non-standard residues; d marks the D form. Side chains are listed from the residue outwards. Peptide text beside a SMILES is read from it. * marks the point of attachment. C16 diacid = O=C(O)CCCCCCCCCCCCCCC(=O)*; γGlu = O=C(O)[C@H](CCC(=O)[*:2])N[*:1]; Palmitoyl = CCCCCCCCCCCCCCCC(=O)*; Aib = CC(C)(N)C(=O)O

Assays:
human GIP R = target: T1, human GIP R (Homo sapiens, UniProt P48546); assay: Human GIP receptor (GIP R) activity assay, cAMP induction (AlphaScreen cAMP kit); assay type: cell-based; details: HEK293 cells expressing the human GIP R; cAMP induction, 15 min at 37° C.; average values of multiple determinations; read-out: GIP R (EC50 in nM)
T1 construct: expressed in transfected cells
T1 sequence (P48546 22-466): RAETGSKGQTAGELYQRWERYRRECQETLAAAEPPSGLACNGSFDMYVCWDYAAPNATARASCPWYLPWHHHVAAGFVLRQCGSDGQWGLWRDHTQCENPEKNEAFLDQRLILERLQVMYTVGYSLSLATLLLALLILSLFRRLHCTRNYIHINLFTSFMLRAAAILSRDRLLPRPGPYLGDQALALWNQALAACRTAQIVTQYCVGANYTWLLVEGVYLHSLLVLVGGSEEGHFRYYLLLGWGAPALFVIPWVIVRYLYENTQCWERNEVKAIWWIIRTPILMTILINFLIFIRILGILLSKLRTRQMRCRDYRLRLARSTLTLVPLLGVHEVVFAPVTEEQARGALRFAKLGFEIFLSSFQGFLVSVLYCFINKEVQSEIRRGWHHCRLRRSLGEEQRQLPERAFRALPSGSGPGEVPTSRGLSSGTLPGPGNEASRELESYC
Description: Human GIP Receptor (GIP R) and GLP-1 Receptor (GLP-1 R) Activity Assay
In vitro effects of peptide conjugates of the invention were assessed by measuring the induction of cAMP following stimulation of the respective receptor by GIP, GLP1 or analogues of these, as outlined in the invention, using the AlphaSceen® cAMP kit from Perkin-Elmer according to instructions. Briefly. HEK293 cells expressing the human GIP R or GLP-1 R (stable cell lines generated through transfection of the cDNA for human GIP R or GLP-1 and selection of stable clones) were seeded at 30,000 cells/well in 96-well microtiter plates coated with 0.01% poly-L-lysine, and grown for 1 day in culture in 200 μl growth medium (DMEM, 10% FCS, Penicillin (100 IU/ml), Streptomycin (100 μg/ml)). On the day of analysis, growth medium was removed and the cells were washed once with […] Tyrode's buffer (Tyrode's Salts (9.6 g/1), 10 mM HEPES, pH 7.4). […] The Assay buffer was removed and cells are lysed in 80 μl Lysis buffer (0.1% w/v BSA, 5 mM HEPES, 0.3% v/v Tween-20) per well. From each well 10 μl lysed cells was transferred to a 384-well plate and mixed with 15 μl bead-mix (1 Unit/15 μl anti-cAMP Acceptor Beads, 1 Unit/15 μl Donor Beads, and 1 Unit/15 μl Biotinylated cAMP in Assay Buffer). The plates were mixed and incubated in the dark for an hour at room temperature before measuring using an Envision™ plate reader (Perkin-Elmer).

human GLP-1 R = target: T2, human GLP-1 R (Homo sapiens, UniProt P43220); assay: Human GLP-1 receptor (GLP-1 R) activity assay, cAMP induction (AlphaScreen cAMP kit); assay type: cell-based; details: HEK293 cells expressing the human GLP-1 R, 15 min at 37° C., average values of multiple determinations, read-out: GLP1 R (EC50 in nM)
T2 construct: expressed in transfected cells
T2 sequence (P43220 24-463): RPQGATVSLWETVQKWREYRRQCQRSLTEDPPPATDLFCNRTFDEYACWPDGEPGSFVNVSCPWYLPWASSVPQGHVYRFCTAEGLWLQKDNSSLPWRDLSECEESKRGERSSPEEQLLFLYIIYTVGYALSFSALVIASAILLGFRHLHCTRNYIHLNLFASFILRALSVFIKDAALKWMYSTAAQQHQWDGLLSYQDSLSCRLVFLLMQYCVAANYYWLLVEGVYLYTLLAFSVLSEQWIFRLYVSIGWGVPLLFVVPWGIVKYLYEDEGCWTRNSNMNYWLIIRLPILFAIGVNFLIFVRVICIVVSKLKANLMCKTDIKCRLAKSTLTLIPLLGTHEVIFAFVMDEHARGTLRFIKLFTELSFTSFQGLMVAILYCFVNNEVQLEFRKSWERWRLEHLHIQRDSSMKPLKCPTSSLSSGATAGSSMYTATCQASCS
Summary of the method: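 Stable HEK293 clones expressing human GIP R or GLP-1 R, grown 1 day, washed in Tyrode's buffer (10 mM HEPES, pH 7.4), then stimulated with peptide. Cells lysed and cAMP quantified by AlphaScreen competition with biotinylated cAMP, 1 h dark incubation at room temperature.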

Row | SMILES | EC50 (human GIP R) | EC50 (human GLP-1 R)
1 | CC[C@H](C)[C@H](NC(=O)[C@H](CO)NC(=O)[C@H](Cc1ccc(O)cc1)NC(=O)[C@H](CC(=O)O)NC(=O)[C@H](CO)NC(=O)[C@@H](NC(=O)[C@H](Cc1ccccc1)NC(=O)[C@@H](NC(=O)CNC(=O)[C@H](CCC(=O)O)NC(=O)C(C)(C)NC(=O)[C@@H](N)Cc1ccc(O)cc1)[C@@H](C)O)[C@@H](C)O)C(=O)N[C@@H](Cc1ccc(O)cc1)C(=O)N[C@@H](CC(C)C)C(=O)N[C@@H](CC(=O)O)C(=O)N[C@@H](CO)C(=O)N[C@@H](CCCCN)C(=O)N[C@@H](C)C(=O)N[C@@H](CCC(N)=O)C(=O)N[C@@H](CCCNC(=N)N)C(=O)N[C@@H](C)C(=O)N[C@@H](Cc1ccccc1)C(=O)N[C@H](C(=O)N[C@@H](CC(N)=O)C(=O)N[C@@H](Cc1c[nH]c2ccccc12)C(=O)N[C@@H](CC(C)C)C(=O)N[C@@H](CC(C)C)C(=O)N[C@@H](C)C(=O)NC(C)(C)C(=O)N[C@@H](CCCCN)C(N)=O)C(C)C [Compound 16] (H-Y[Aib]EGTFTSDYSIYLDSKAQRAFVNWLLA[Aib]K-NH2) | 0.053 nM | 0.012 nM
2 | CC[C@H](C)[C@H](NC(=O)[C@H](CO)NC(=O)[C@H](Cc1ccc(O)cc1)NC(=O)[C@H](CC(=O)O)NC(=O)[C@H](CO)NC(=O)[C@@H](NC(=O)[C@H](Cc1ccccc1)NC(=O)[C@@H](NC(=O)CNC(=O)[C@H](CCC(=O)O)NC(=O)C(C)(C)NC(=O)[C@@H](N)Cc1ccc(O)cc1)[C@@H](C)O)[C@@H](C)O)C(=O)N[C@@H](Cc1ccc(O)cc1)C(=O)N[C@@H](CC(C)C)C(=O)N[C@@H](CC(=O)O)C(=O)N[C@@H](CCCCN)C(=O)N[C@@H](CCCCN)C(=O)N[C@@H](C)C(=O)N[C@@H](CCC(N)=O)C(=O)N[C@@H](CCCNC(=N)N)C(=O)N[C@@H](C)C(=O)N[C@@H](Cc1ccccc1)C(=O)N[C@H](C(=O)N[C@@H](CC(N)=O)C(=O)N[C@@H](Cc1c[nH]c2ccccc12)C(=O)N[C@@H](CC(C)C)C(=O)N[C@@H](CC(C)C)C(=O)NC(C)(C)C(=O)N[C@@H](CCCCN)C(N)=O)C(C)C [Compound 24] (H-Y[Aib]EGTFTSDYSIYLDKKAQRAFVNWLL[Aib]K-NH2) | 0.096 nM | –
3 | CCCCCCCCCCCCCCCC(=O)N[C@@H](CCC(=O)NCCCC[C@H](NC(=O)[C@H](CO)NC(=O)[C@H](CC(=O)O)NC(=O)[C@H](CC(C)C)NC(=O)[C@H](Cc1ccc(O)cc1)NC(=O)[C@@H](NC(=O)[C@H](CO)NC(=O)[C@H](Cc1ccc(O)cc1)NC(=O)[C@H](CC(=O)O)NC(=O)[C@H](CO)NC(=O)[C@@H](NC(=O)[C@H](Cc1ccccc1)NC(=O)[C@@H](NC(=O)CNC(=O)[C@H](CCC(=O)O)NC(=O)C(C)(C)NC(=O)[C@@H](N)Cc1ccc(O)cc1)[C@@H](C)O)[C@@H](C)O)[C@@H](C)CC)C(=O)N[C@@H](C)C(=O)N[C@@H](C)C(=O)N[C@@H](Cc1c[nH]cn1)C(=O)N[C@@H](CC(=O)O)C(=O)N[C@@H](Cc1ccccc1)C(=O)N[C@H](C(=O)N[C@@H](CCC(=O)O)C(=O)N[C@@H](Cc1c[nH]c2ccccc12)C(=O)N[C@@H](CC(C)C)C(=O)N[C@@H](CC(C)C)C(=O)N[C@@H](CCCNC(=N)N)C(=O)N[C@@H](C)C(N)=O)C(C)C)C(=O)O [Compound 47] (H-Y[Aib]EGTFTSDYSIYLDSK([γGlu-Palmitoyl])AAHDFVEWLLRA-NH2) | 0.096 nM | –
4 | CCCCCCCCCCCCCCCC(=O)N[C@@H](CCC(=O)NCCCC[C@H](NC(=O)[C@H](CCC(=O)O)NC(=O)[C@H](CC(=O)O)NC(=O)[C@H](CC(C)C)NC(=O)[C@H](Cc1ccc(O)cc1)NC(=O)[C@@H](NC(=O)[C@H](CO)NC(=O)[C@H](Cc1ccc(O)cc1)NC(=O)[C@H](CC(=O)O)NC(=O)[C@H](CO)NC(=O)[C@@H](NC(=O)[C@H](Cc1ccccc1)NC(=O)[C@@H](NC(=O)CNC(=O)[C@H](CCC(=O)O)NC(=O)C(C)(C)NC(=O)[C@@H](N)Cc1ccc(O)cc1)[C@@H](C)O)[C@@H](C)O)[C@@H](C)CC)C(=O)N[C@@H](C)C(=O)N[C@@H](C)C(=O)N[C@@H](CCCCN)C(=O)N[C@@H](CC(=O)O)C(=O)N[C@@H](Cc1ccccc1)C(=O)N[C@H](C(=O)N[C@@H](CCC(=O)O)C(=O)N[C@@H](Cc1c[nH]c2ccccc12)C(=O)N[C@@H](CC(C)C)C(=O)N[C@@H](CCC(=O)O)C(=O)N[C@@H](CO)C(=O)N[C@@H](C)C(N)=O)[C@@H](C)CC)C(=O)O [Compound 50] (H-Y[Aib]EGTFTSDYSIYLDEK([γGlu-Palmitoyl])AAKDFIEWLESA-NH2) | 0.053 nM | –

The next compounds have a lower EC50 (human GIP R) than those just listed; values first:

Row | EC50 (human GIP R) | EC50 (human GLP-1 R) | SMILES
5 | 0.022 nM | – | CC[C@H](C)[C@H](NC(=O)[C@H](CO)NC(=O)[C@H](Cc1ccc(O)cc1)NC(=O)[C@H](CC(=O)O)NC(=O)[C@H](CO)NC(=O)[C@@H](NC(=O)[C@H](Cc1ccccc1)NC(=O)[C@@H](NC(=O)CNC(=O)[C@H](CCC(=O)O)NC(=O)C(C)(C)NC(=O)[C@@H](N)Cc1ccc(O)cc1)[C@@H](C)O)[C@@H](C)O)C(=O)N[C@@H](Cc1ccc(O)cc1)C(=O)N[C@@H](CC(C)C)C(=O)N[C@@H](CC(=O)O)C(=O)N[C@@H](CCCCN)C(=O)N[C@@H](CCCCNC(=O)CC[C@H](NC(=O)CCCCCCCCCCCCCCC(=O)O)C(=O)O)C(=O)N[C@@H](C)C(=O)N[C@@H](CCC(N)=O)C(=O)N[C@@H](CCCNC(=N)N)C(=O)N[C@@H](C)C(=O)N[C@@H](Cc1ccccc1)C(=O)N[C@H](C(=O)N[C@@H](CC(N)=O)C(=O)N[C@@H](Cc1c[nH]c2ccccc12)C(=O)N[C@@H](CC(C)C)C(=O)N[C@@H](CC(C)C)C(=O)N[C@@H](C)C(=O)NC(C)(C)C(=O)N[C@@H](CCCCN)C(N)=O)C(C)C [Compound 31] (H-Y[Aib]EGTFTSDYSIYLDKK([γGlu-C16 diacid])AQRAFVNWLLA[Aib]K-NH2)
6 | 0.015 nM | 0.022 nM | CC[C@H](C)[C@H](NC(=O)[C@H](CCCCN)NC(=O)[C@H](CC(=O)O)NC(=O)[C@H](CC(C)C)NC(=O)[C@H](C)NC(=O)[C@@H](NC(=O)[C@H](CO)NC(=O)[C@H](Cc1ccc(O)cc1)NC(=O)[C@H](CC(=O)O)NC(=O)[C@H](CO)NC(=O)[C@@H](NC(=O)[C@H](Cc1ccccc1)NC(=O)[C@@H](NC(=O)CNC(=O)[C@H](CCC(=O)O)NC(=O)C(C)(C)NC(=O)[C@@H](N)Cc1ccc(O)cc1)[C@@H](C)O)[C@@H](C)O)[C@@H](C)CC)C(=O)N[C@@H](C)C(=O)N[C@@H](CCC(N)=O)C(=O)N[C@@H](CCCNC(=N)N)C(=O)N[C@@H](C)C(=O)N[C@@H](Cc1ccccc1)C(=O)N[C@H](C(=O)N[C@@H](CC(N)=O)C(=O)N[C@@H](Cc1c[nH]c2ccccc12)C(=O)N[C@@H](CC(C)C)C(=O)N[C@H](C(=O)N[C@@H](C)C(=O)NC(C)(C)C(=O)N[C@@H](CCCCN)C(N)=O)C(C)C)C(C)C [Compound 3] (H-Y[Aib]EGTFTSDYSIALDKIAQRAFVNWLVA[Aib]K-NH2)
7 | 0.007 nM | 0.018 nM | CC[C@H](C)[C@H](NC(=O)[C@H](CO)NC(=O)[C@H](Cc1ccc(O)cc1)NC(=O)[C@H](CC(=O)O)NC(=O)[C@H](CO)NC(=O)[C@@H](NC(=O)[C@H](Cc1ccccc1)NC(=O)[C@@H](NC(=O)CNC(=O)[C@H](CCC(=O)O)NC(=O)C(C)(C)NC(=O)[C@@H](N)Cc1ccc(O)cc1)[C@@H](C)O)[C@@H](C)O)C(=O)N[C@@H](Cc1ccc(O)cc1)C(=O)N[C@@H](CC(C)C)C(=O)N[C@@H](CCC(=O)O)C(=O)N[C@@H](CCCCN)C(=O)N[C@@H](CCCCN)C(=O)N[C@@H](C)C(=O)N[C@@H](C)C(=O)N[C@@H](Cc1c[nH]cn1)C(=O)N[C@@H](CC(=O)O)C(=O)N[C@@H](Cc1ccccc1)C(=O)N[C@H](C(=O)N[C@@H](CCC(=O)O)C(=O)N[C@@H](Cc1c[nH]c2ccccc12)C(=O)N[C@@H](CC(C)C)C(=O)N[C@@H](CC(C)C)C(=O)N[C@@H](CO)C(=O)N[C@@H](C)C(N)=O)C(C)C [Compound 38] (H-Y[Aib]EGTFTSDYSIYLEKKAAHDFVEWLLSA-NH2)
